Source: US9328106B2, “Cyclic ether pyrazol-4-yl-heterocyclyl-carboxamide compounds and methods of use” (Genentech, Inc., priority 2012, dated 2016)

Molecular target: PIM1 (Homo sapiens (Human), UniProt P11309)
Assay: biochemical
Assay type: biochemical
Conditions: 20 pM PIM1, 1 μM FAM-peptide, 10 μM ATP, 90 minutes at room temperature; read-out: PIM1 LC3K (KI)

Sequence of PIM1 (P11309 whole entry): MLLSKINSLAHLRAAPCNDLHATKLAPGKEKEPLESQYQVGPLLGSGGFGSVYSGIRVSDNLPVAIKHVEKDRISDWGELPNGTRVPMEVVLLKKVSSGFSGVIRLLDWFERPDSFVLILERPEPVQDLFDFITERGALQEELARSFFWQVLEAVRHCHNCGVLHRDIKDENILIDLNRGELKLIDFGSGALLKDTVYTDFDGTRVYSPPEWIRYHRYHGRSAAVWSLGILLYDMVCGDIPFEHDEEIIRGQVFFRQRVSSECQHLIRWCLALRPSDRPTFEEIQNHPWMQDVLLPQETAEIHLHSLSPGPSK

Cn1ncc(NC(=O)c2csc(-c3cncc(F)c3)n2)c1[C@@H]1CC[C@@H](N)[C@H](F)CO1 [Example 239, N-(5-((2S,5R,6S)-5-amino-6-fluorooxepan-2-yl)-1-methyl-1H-pyrazol-4-yl)-2-(5-fluoropyridin-3-yl)thiazole-4-carboxamide]
Ki: 2660 pM

Cn1ncc(NC(=O)c2csc(-c3cccc(F)c3Cl)n2)c1[C@@H]1CC[C@@H](N)[C@@H](F)CO1 [Example 250, N-(5-((2S,5R,6R)-5-amino-6-fluorooxepan-2-yl)-1-methyl-1H-pyrazol-4-yl)-2-(2-chloro-3-fluorophenyl)thiazole-4-carboxamide]
Ki: 132 pM

Cn1ncc(NC(=O)c2ccc(F)c(-c3c(F)cc(C4(F)CCOCC4)cc3F)n2)c1[C@@H]1CC[C@@H](N)[C@H](F)CO1 [Example 206, N-(5-((2S,5R,6S)-5-amino-6-fluorooxepan-2-yl)-1-methyl-1H-pyrazol-4-yl)-6-(2,6-difluoro-4-(4-fluorotetrahydro-2H-pyran-4-yl)phenyl)-5-fluoropicolinamide]
Ki: 16 pM

Cn1ncc(NC(=O)c2nc(-c3cnn(C)c3C(F)(F)F)sc2N)c1[C@@H]1CC[C@@H](N)[C@H](F)CO1 [Example 282, 5-amino-N-(5-((2S,5R,6S)-5-amino-6-fluorooxepan-2-yl)-1-methyl-1H-pyrazol-4-yl)-2-(1-methyl-5-(trifluoromethyl)-1H-pyrazol-4-yl)thiazole-4-carboxamide]
Ki: 58 pM

Cn1ncc(NC(=O)c2ccc(F)c(-c3c(F)cc(Cl)cc3F)n2)c1[C@@H]1CC[C@@H](N)[C@H](F)CO1 [Example 375, N-(5-((2S,5R,6S)-5-amino-6-fluorooxepan-2-yl)-1-methyl-1H-pyrazol-4-yl)-6-(4-chloro-2,6-difluorophenyl)-5-fluoropicolinamide]
Ki: 36 pM

Cn1ncc(NC(=O)c2csc(-c3c(F)cccc3F)n2)c1[C@@H]1CC[C@@H](N)[C@@H](O)CO1 [Example 350, N-(5-((2S,5R,6R)-5-amino-6-hydroxyoxepan-2-yl)-1-methyl-1H-pyrazol-4-yl)-2-(2,6-difluorophenyl)thiazole-4-carboxamide]
Ki: > 667000 pM

Cn1ncc(NC(=O)c2nc(-c3ccc(C(F)(F)F)cc3F)sc2N)c1[C@@H]1CC[C@@H](N)[C@@H](F)CO1 [Example 259, 5-amino-N-(5-((2S,5R,6R)-5-amino-6-fluorooxepan-2-yl)-1-methyl-1H-pyrazol-4-yl)-2-(2-fluoro-4-(trifluoromethyl)phenyl)thiazole-4-carboxamide]
Ki: 10 pM

C[C@H]1O[C@@H](c2c(NC(=O)c3nc(-c4c(F)cccc4F)sc3N)cnn2C)CC(F)(F)[C@@]1(C)N [Example 184, 5-Amino-N-(5-((2R,5S,6R)-5-amino-4,4-difluoro-5,6-dimethyltetrahydro-2H-pyran-2-yl)-1-methyl-1H-pyrazol-4-yl)-2-(2,6-difluorophenyl)thiazole-4-carboxamide]
Ki: 484 pM

Cn1ncc(NC(=O)c2nc(C3CCCC3)sc2N)c1[C@@H]1CC[C@@H](N)[C@H](F)CO1 [Example 334, 5-amino-N-(5-((2S,5R,6S)-5-amino-6-fluorooxepan-2-yl)-1-methyl-1H-pyrazol-4-yl)-2-cyclopentylthiazole-4-carboxamide]
Ki: 453 pM

COC1(c2cc(F)c(-c3nc(C(=O)Nc4cnn(C)c4[C@@H]4CC[C@@H](N)[C@H](F)CO4)ccc3F)c(F)c2)COC1 [Example 202, N-(5-((2S,5R,6S)-5-amino-6-fluorooxepan-2-yl)-1-methyl-1H-pyrazol-4-yl)-6-(2,6-difluoro-4-(3-methoxyoxetan-3-yl)phenyl)-5-fluoropicolinamide]
Ki: 56 pM

Cn1ncc(NC(=O)c2csc(-c3cc(Cl)ccc3F)n2)c1[C@@H]1CC[C@@H](N)[C@H](F)CO1 [Example 302, N-(5-((2S,5R,6S)-5-amino-6-fluorooxepan-2-yl)-1-methyl-1H-pyrazol-4-yl)-2-(5-chloro-2-fluorophenyl)thiazole-4-carboxamide]
Ki: 31 pM

Cn1ncc(NC(=O)c2ccc(F)c(-c3c(F)cc(OC4CCOCC4)cc3F)n2)c1[C@@H]1CC[C@@H](N)[C@@H](F)CO1 [Example 188, N-(5-((2S,5R,6R)-5-Amino-6-fluorooxepan-2-yl)-1-methyl-1H-pyrazol-4-yl)-6-(2,6-difluoro-4-((tetrahydro-2H-pyran-4-yl)oxy)phenyl)-5-fluoropicolinamide]
Ki: 30 pM

Cn1ncc(NC(=O)c2nc(-c3c(F)cccc3F)sc2N)c1[C@H]1C[C@@H](N)CCO1 (stereo in doubt) [Example 158, 5-Amino-N-[5-[4-aminotetrahydropyran-2-yl]-1-methyl-pyrazol-4-yl]-2-(2,6-difluorophenyl)thiazole-4-carboxamide]
Ki: 32 pM

Cn1ncc(NC(=O)c2nc(-c3c(F)cccc3F)sc2N)c1[C@H]1C[C@@H](N)CCO1 [Example 159, 5-Amino-N-[5-[(2R,4S)-4-aminotetrahydropyran-2-yl]-1-methyl-pyrazol-4-yl]-2-(2,6-difluorophenyl)thiazole-4-carboxamide]
Ki: 19 pM

CO[C@H]1CO[C@H](c2c(NC(=O)c3nc(-c4c(F)ccc(F)c4F)sc3N)cnn2C)CC[C@H]1N [Example 262, 5-amino-N-(5-((2S,5R,6R)-5-amino-6-methoxyoxepan-2-yl)-1-methyl-1H-pyrazol-4-yl)-2-(2,3,6-trifluorophenyl)thiazole-4-carboxamide]
Ki: 10 pM

Cn1ncc(NC(=O)c2nc(-c3c(F)ccc(F)c3F)sc2N)c1[C@@H]1CC[C@@H](N)[C@H](F)CO1 [Example 332, 5-amino-N-(5-((2S,5R,6S)-5-amino-6-fluorooxepan-2-yl)-1-methyl-1H-pyrazol-4-yl)-2-(2,3,6-trifluorophenyl)thiazole-4-carboxamide]
Ki: 3 pM

Cn1ncc(NC(=O)c2ccc(F)c(-c3c(F)cc(OCCO)cc3F)n2)c1[C@@H]1CC[C@@H](N)[C@H](F)CO1 [Example 209, N-(5-((2S,5R,6S)-5-Amino-6-fluorooxepan-2-yl)-1-methyl-1H-pyrazol-4-yl)-6-(2,6-difluoro-4-(2-hydroxyethoxy)phenyl)-5-fluoropicolinamide]
Ki: 16 pM

Cc1nn(C)cc1-c1nc(C(=O)Nc2cnn(C)c2[C@@H]2CC[C@@H](N)[C@@H](F)CO2)c(N)s1 [Example 254, 5-amino-N-(5-((2S,5R,6R)-5-amino-6-fluorooxepan-2-yl)-1-methyl-1H-pyrazol-4-yl)-2-(1,3-dimethyl-1H-pyrazol-4-yl)thiazole-4-carboxamide]
Ki: 26 pM

C[C@@H]1C[C@H](N)CC[C@H](c2c(NC(=O)c3nc(-c4c(F)cccc4F)sc3N)cnn2C)O1 [Example 120, 5-amino-N-(5-((2R,5R,7R)-5-amino-7-methyloxepan-2-yl)-1-methyl-1H-pyrazol-4-yl)-2-(2,6-difluorophenyl)thiazole-4-carboxamide]
Ki: 81 pM

Cn1ncc(NC(=O)c2nc(-c3c(F)cccc3F)sc2N)c1[C@@H]1CC[C@@H](CN)O1 [Example 172, 5-Amino-N-[5-[(2S,5S)-5-(aminomethyl)tetrahydrofuran-2-yl]-1-methyl-pyrazol-4-yl]-2-(2,6-difluorophenyl)thiazole-4-carboxamide]
Ki: 150 pM

Cn1ncc(NC(=O)c2nc(-c3c(F)cccc3F)sc2N)c1C1C[C@@H](N)[C@H](F)CCO1 (stereo partly drawn) [Example 141, 5-amino-N-(5-((4R,5R)-4-amino-5-fluorooxepan-2-yl)-1-methyl-1H-pyrazol-4-yl)-2-(2,6-difluorophenyl)thiazole-4-carboxamide]
Ki: 70 pM

Cn1ncc(NC(=O)c2nc(-c3c(F)cccc3F)sc2N)c1[C@H]1CC[C@H](N)C(F)(F)CO1 [Example 169, 5-Amino-N-[5-[(2R,5S)-5-amino-6,6-difluoro-oxepan-2-yl]-1-methyl-pyrazol-4-yl]-2-(2,6-difluorophenyl)thiazole-4-carboxamide]
Ki: 341 pM

CO[C@H]1CO[C@H](c2c(NC(=O)c3csc(-c4c(F)cccc4F)n3)cnn2C)CC[C@H]1N [Example 221, N-(5-((2S,5R,6R)-5-amino-6-methoxyoxepan-2-yl)-1-methyl-1H-pyrazol-4-yl)-2-(2,6-difluorophenyl)thiazole-4-carboxamide]
Ki: 66 pM

COc1cc(F)c(-c2nc(C(=O)Nc3cnn(C)c3[C@@H]3CC[C@@H](N)[C@@H](F)CO3)ccc2F)c(F)c1 [Example 187, N-(5-((2S,5R,6R)-5-Amino-6-fluorooxepan-2-yl)-1-methyl-1H-pyrazol-4-yl)-6-(2,6-difluoro-4-methoxyphenyl)-5-fluoropicolinamide]
Ki: 27 pM

CN(C)C(=O)c1ccc(F)c(-c2nc(C(=O)Nc3cnn(C)c3[C@@H]3CC[C@@H](N)[C@H](F)CO3)cs2)c1F [Example 376, N-[5-[(2S,5R,6S)-5-amino-6-fluoro-oxepan-2-yl]-1-methyl-pyrazol-4-yl]-2-[3-(dimethylcarbamoyl)-2,6-difluoro-phenyl]thiazole-4-carboxamide]
Ki: 727 pM

Cn1ncc(NC(=O)c2nc(-c3c(F)cccc3F)sc2N)c1[C@@H]1C[C@@H](F)[C@H](N)CCO1 (stereo in doubt) [Example 135, 5-amino-N-[5-(5-amino-4-fluoro-oxepan-2-yl)-1-methyl-pyrazol-4-yl]-2-(2,6-difluorophenyl)thiazole-4-carboxamide]
Ki: 10 pM

Cn1ncc(NC(=O)c2csc(-n3cc4ccccc4n3)n2)c1[C@@H]1CC[C@@H](N)[C@H](F)CO1 [Example 396, N-(5-((2S,5R,6S)-5-amino-6-fluorooxepan-2-yl)-1-methyl-1H-pyrazol-4-yl)-2-(2H-indazol-2-yl)thiazole-4-carboxamide]
Ki: 2 pM

Cn1ncc(NC(=O)c2nc(-c3c(F)cccc3F)sc2N)c1C1CC(F)(F)CC(N)CO1 (centres unmarked) [Example 133, 5-amino-N-[5-(6-amino-4,4-difluoro-oxepan-2-yl)-1-methyl-pyrazol-4-yl]-2-(2,6-difluorophenyl)thiazole-4-carboxamide]
Ki: 76 pM

COCCOc1cc(F)c(-c2nc(C(=O)Nc3cnn(C)c3[C@@H]3CC[C@@H](N)[C@H](O)CO3)ccc2F)c(F)c1 [Example 191, N-(5-((2S,5R,6S)-5-Amino-6-hydroxyoxepan-2-yl)-1-methyl-1H-pyrazol-4-yl)-6-(2,6-difluoro-4-(2-methoxyethoxy)phenyl)-5-fluoropicolinamide]
Ki: 56 pM
